From patent publication US9382288B2, “Derivatives of steroid benzylamines, having an antiparasitic antibacterial, antimycotic and/or antiviral action” (Justus-Liebig-Universitat Giessen, priority 2010, dated 2016)
Converted amounts (≈) assume the structure as drawn. Read-outs that look alike come from different tables or passages of the source.

Columns and labels:
[1] = test system: P. falciparum strain 3D7-Netherlands; assay: In vitro IC50, 3H-hypoxanthine incorporation, P. falciparum 3D7; format: cell-based, Plasmodium falciparum; details: for IC50: Plasmodium falciparum, P. falciparum strain 3D7; for in vitro activity in words: compared with compound 1
K562 = assay: Antiproliferative activity K562; format: cell-based; details: Homo sapiens, read-out: IC50 [μg/ml] Antiproliferative activity K562
L929 = assay: Antiproliferative activity L929; format: cell-based; details: Mus musculus, read-out: IC50 [μg/ml] Antiproliferative activity L929
Cytotoxicity HeLa = details: human, HeLa cells
[2] = test system: Plasmodium berghei GFP MRA-865; assay: Plasmodium berghei infection in the mouse model (in vivo); details: ip 3 × 10 mg/kg
[3] = read-out: IC50 [ng/ml] P.f.(3D7)

Compound | IC50 ([1]; read-out: IC50 [nM] P.f.(3D7)) [nM] | IC50 [1, 3] [ng/mL] | IC50 (K562) [µg/mL] | IC50 (L929) [µg/mL] | IC50 (Cytotoxicity HeLa) [µg/mL] | in vitro activity in words [1] | MSD chloroquine ip 3 × 10 mg/kg [2] [days]
COc1ccc2c(c1)CCC1C2CC[C@@]2(C)C1C[C@@H](NCc1ccccc1O)[C@H]2O (stereo partly drawn) [Compound 45, 16α-(2-Hydroxyphenyl-methylamino)-17α-hydroxy-3-methoxy-estra-1,3,5(10)-triene] | 101 | 41 |  |  |  |  | 
COc1ccc2c(c1)CC[C@@H]1[C@@H]2CC[C@]2(C)[C@@H](O)[C@H](N(C)c3cc4ccccc4cc3O)C[C@@H]12 [Compound 32, 16α-[(3-Hydroxy-naphth-2-yl)-methylamino]-17β-hydroxy-3-methoxy-estra-1,3,5(10)-triene] | 29.9 | 13.7 |  |  |  |  | 
COc1ccc2c(c1)CCC1C2CC[C@@]2(C)C1C[C@H](NCc1ccccc1O)[C@@H]2O (stereo partly drawn) [Compound 42, 16β-(2-Hydroxyphenyl-methylamino)-17β-hydroxy-3-methoxy-estra-1,3,5(10)-triene] | 227 | 91.3 |  |  |  |  | 
COc1ccc2c(c1)CCC1C2CC[C@@]2(C)C1CC[C@H]2NCc1ccccc1OC (stereo partly drawn) [Compound 5, 17α-(2-Methoxyphenyl-methylamino)-3-methoxy-estra-1,3,5(10)-triene] | 879 | 578 |  |  |  |  | 
COc1ccc2c(c1)CCC1C2CC[C@@]2(C)C1CC[C@H]2NCc1cccc(O)c1 (stereo partly drawn) [Compound 6, 17α-(3-Hydroxyphenyl-methylamino)-3-methoxy-estra-1,3,5(10)-triene] | 440 | 172 |  |  |  |  | 
COc1ccc2c(c1)CCC1C2CC[C@@]2(C)C1C[C@H](NCc1ccccc1O)[C@H]2O (stereo partly drawn) [Compound 44, 16β-(2-Hydroxyphenyl-methylamino)-17α-hydroxy-3-methoxy-estra-1,3,5(10)-triene] | 676 | 275 | 0.85 (≈ 2.09 µM) | 2.5 (≈ 6.13 µM) | 3.4 (≈ 8.34 µM) |  | 
COc1ccc2c(c1)CCC1C2CC[C@]2(C)C1C[C@@H](NCc1ccccc1O)[C@@H]2O (stereo partly drawn) [Compound 48, 16α-(2-Hydroxyphenyl-methylamino)-17β-hydroxy-3-methoxy-13α-estra-1,3,5(10)-triene] | 83.3 | 34 |  |  |  |  | 
COc1ccc2c(c1)CCC1C2CC[C@@]2(C)C1CC[C@H]2NCc1c(O)ccc2ccccc12 (stereo partly drawn) [Compound 17, 17α-[(2-Hydroxynaphth-1-yl)-methylamino]-3-methoxy-estra-1,3,5(10)-triene] | 72.8 | 32.1 |  |  |  |  | 
CCN(CC)c1ccc(CN[C@H]2CCC3C4CCc5cc(OC)ccc5C4CC[C@@]32C)c(O)c1 (stereo partly drawn) [Compound 23, 17β-[4-(N,N-Diethylamino)-2-hydroxyphenyl-methylamino]-3-methoxy-estra-1,3,5(10)-triene] | 716 | 331 |  |  |  |  | 
COc1ccc2c(c1)CCC1C2CC[C@@]2(C)C1CC[C@@H]2NCc1c(O)ccc2ccccc12 (stereo partly drawn) [Compound 19, 17β-[(2-Hydroxynaphth-1-yl)-methylamino]-3-methoxy-estra-1,3,5(10)-triene hydroperchlorate] | 182 | 98.6 |  |  |  |  | 
COc1ccc2c(c1)CCC1C2CC[C@@]2(C)C1CC[C@H]2NCc1ccc(O)cc1 (stereo partly drawn) [Compound 7] | 115 | 45 |  |  |  |  | 
COc1ccc2c(c1)CC[C@@H]1[C@@H]2CC[C@]2(C)[C@H](O)[C@H](N(C)c3cc4ccccc4cc3O)C[C@@H]12 [Compound 36, 16α-[(3-Hydroxy-naphth-2-yl)-methylamino]-17α-hydroxy-3-methoxy-estra-1,3,5(10)-triene] | 42.1 | 19.3 |  |  |  |  | 
COc1ccc2c(c1)CCC1C2CC[C@]2(C)C[C@H](NCc3ccccc3O)CC12 (stereo partly drawn) [Compound 4, 16α-(2-Hydroxyphenyl-methylamino)-3-methoxy-estra-1,3,5(10)-triene] | 41.5 | 16.4 | 1.3 (≈ 3.32 µM) | 1.6 (≈ 4.09 µM) | 4.7 (≈ 12 µM) | comparable activity | 
COc1ccc2c(c1)CCC1C2CC[C@@]2(C)C1CC[C@@H]2NCc1cccc(O)c1 (stereo partly drawn) [Compound 20, 17β-(3-Hydroxyphenyl-methylamino)-3-methoxy-estra-1,3,5(10)-triene] | 733 | 287 |  |  |  |  | 
CCN(CC)CCCC(C)Nc1ccnc2cc(Cl)ccc12 (stereo not drawn) [chloroquine, reference compound] |  |  |  |  |  |  | 13.6
COc1ccc2c(c1)CCC1C2CC[C@@]2(C)C1C[C@@H](NCc1ccccc1O)[C@@H]2O (stereo partly drawn) [Compound 43, 16α-(2-Hydroxyphenyl-methylamino)-17β-hydroxy-3-methoxy-estra-1,3,5(10)-triene] | 58.5 | 23.9 | 1.2 (≈ 2.94 µM) | 2 (≈ 4.91 µM) | 7.7 (≈ 18.9 µM) |  | 
COc1ccc2c(c1)CCC1C2CC[C@]2(C)C1C[C@H](NCc1ccccc1O)[C@@H]2O (stereo partly drawn) [Compound 47, 16β-(2-Hydroxyphenyl-methylamino)-17β-hydroxy-3-methoxy-13α-estra-1,3,5(10)-triene] | 140 | 57.3 |  |  |  |  | 
COc1ccc2c(c1)CCC1C2CC[C@]2(C)C[C@@H](NCc3ccccc3O)CC12 (stereo partly drawn) [Compound 3, 16β-(2-Hydroxyphenyl-methylamino)-3-methoxy-estra-1,3,5(10)-triene] | 62 | 24.5 | 0.7 (≈ 1.79 µM) | 1.9 (≈ 4.85 µM) | 4.4 (≈ 11.2 µM) | comparable activity | 
COc1ccc2c(c1)CCC1C2CC[C@@]2(C)C1C[C@H](NCc1cc(C(C)(C)C)cc(C(C)(C)C)c1O)[C@H]2O (stereo partly drawn) [Ref 1, 16β-(2-Hydroxy-3,5-di-tert-butylphenyl-methylamino)-17α-hydroxy-3-methoxy-estra-1,3,5(10)-triene, reference compound] | 1610 | 836 |  |  |  |  | 
